Assay results: ChEMBL document CHEMBL1862790, “Optimisation of fenarimol series for the treatment of Chagas disease”

What was measured:
[1] = system: Trypanosoma cruzi; test: microbe, parasite or virus in culture; assay type: functional, organism-based, Tulahuen LacZ, Clone C4; details: Trypanosoma cruzi, Tulahuen LacZ, Clone C4
[2] = DNDI: Cytotoxicity against L-6 rat myoblasts from skeletal muscle cells; details: L6 rat skeletal muscle myoblast cells
[3] = system: Trypanosoma cruzi; test: microbe, parasite or virus in culture; assay type: functional, Tulahuen LacZ, Clone C4; details: Trypanosoma cruzi, Tulahuen LacZ, Clone C4

Structure (SMILES) | IC50 [1] [nM] | IC90 [3] [nM] | IC50 [2] [nM] | IC50 ([2]; IC50) [nM]
CC(C)Oc1ccc(C(O)(c2cccnc2)c2ccccc2F)cc1 (stereo unspecified) | 3.3 | 240 | 74000 | –
CC(C)CS(=O)(=O)N1CCC(NC(c2ccc(C(F)(F)F)cc2)c2cnccn2)CC1 (stereo unspecified) | 330 | 880 | – | > 100000
O=S(=O)(NC(c1ccc(C(F)(F)F)cc1)c1cnccn1)c1ccccc1 (stereo unspecified) | 3650 | 7670 | – | > 100000
CC(C)CC(=O)NC(c1ccc(C(F)(F)F)cc1)c1cnccn1 (stereo unspecified) | 8910 | > 10000 | – | > 100000
OC1CCN(C(c2ccc(C(F)(F)F)cc2)c2cnccn2)CC1 (stereo unspecified) | 6520 | > 10000 | – | > 100000
O=C(c1ccccc1)N1CCC(NC(c2ccc(C(F)(F)F)cc2)c2cnccn2)CC1 (stereo unspecified) | 320 | 910 | – | > 100000
Clc1ccc(C(=NN2CCCCC2)c2cccnc2)cc1 | 381 | 630 | – | 56800
Cc1ccc(C(O)(c2ccc(Cl)cc2)c2cncnc2)cn1 (stereo unspecified) | 435 | > 1000 | – | > 100000
O=C(NC(c1ccc(C(F)(F)F)cc1)c1cnccn1)c1ccc(C(F)(F)F)cc1 (stereo unspecified) | 590 | > 1000 | – | 61200
CON=C(c1ccc(C(F)(F)F)cc1)c1cccnc1 | > 1000 | > 1000 | – | 70300
CC(C)CC(=O)N1CCC(NC(c2ccc(C(F)(F)F)cc2)c2cnccn2)CC1 (stereo unspecified) | 270 | 660 | – | > 100000
CS(=O)(=O)N1CCC(NC(c2ccc(C(F)(F)F)cc2)c2cnccn2)CC1 (stereo unspecified) | 970 | 2760 | – | > 100000
CC(C)S(=O)(=O)NC(c1ccc(C(F)(F)F)cc1)c1cnccn1 (stereo unspecified) | > 1000 | > 1000 | – | > 100000
O=S(=O)(NC(c1ccc(C(F)(F)F)cc1)c1cnccn1)c1ccc(Cl)cc1 (stereo unspecified) | > 1000 | > 1000 | – | 56400
OC(c1ccc(C(F)(F)F)cc1)(c1cccnc1)c1ccccc1F (stereo unspecified) | 22 | 210 | > 100000 | –
O=C(C1CC1)N1CCC(NC(c2ccc(C(F)(F)F)cc2)c2cnccn2)CC1 (stereo unspecified) | 470 | 850 | – | > 100000
CS(=O)(=O)NC(c1ccc(C(F)(F)F)cc1)c1cnccn1 (stereo unspecified) | > 10000 | > 10000 | – | > 100000
O=S(=O)(NC(c1ccc(C(F)(F)F)cc1)c1cnccn1)C1CCCCC1 (stereo unspecified) | > 1000 | > 1000 | – | 85000
CC(C)Oc1ccc(C(O)(c2cccnc2)c2cnc(Cl)nc2)cc1 (stereo unspecified) | 293 | 670 | – | > 100000
FC(F)(F)c1ccc(C(NCC2CCCCC2)c2cnccn2)cc1 (stereo unspecified) | 390 | 740 | – | 59200
CC1(C)COC(c2cccc(C(O)(c3ccc(Cl)cc3)c3cncnc3)c2)=N1 (stereo unspecified) | 500 | 890 | – | > 100000
O=S(=O)(C1CCCCC1)N1CCC(NC(c2ccc(C(F)(F)F)cc2)c2cnccn2)CC1 (stereo unspecified) | 570 | 970 | – | 62600
CN(CC1CCCCC1)C(c1ccc(C(F)(F)F)cc1)c1cnccn1 (stereo unspecified) | 480 | 820 | – | 55600
CCS(=O)(=O)NC(c1ccc(C(F)(F)F)cc1)c1cnccn1 (stereo unspecified) | > 1000 | > 1000 | – | > 100000
O=C(NC(c1ccc(C(F)(F)F)cc1)c1cnccn1)c1ccc(Cl)cc1 (stereo unspecified) | 860 | > 1000 | – | 61800

Structure (SMILES) | IC50 [1] [nM] | IC90 [3] [nM] | IC50 [2] [nM] | IC50 ([2]; IC50) [nM]
CC(C)c1ccc(S(=O)(=O)NC(c2ccc(C(F)(F)F)cc2)c2cnccn2)cc1 (stereo unspecified) | > 1000 | > 1000 | – | 60000
Cc1cnc(C(O)(c2ccc(Cl)cc2)c2cncnc2)cn1 (stereo unspecified) | 2110 | 5910 | – | > 100000
CON=C(c1ccc(C(F)(F)F)cc1)c1cnccn1 | > 1000 | > 1000 | – | > 100000
N#CC(c1ccc(Cl)cc1)N1CCN(c2ccccc2)CC1 (stereo unspecified) | > 1000 | > 1000 | – | > 100000
O=S(=O)(Cc1ccccc1)NC(c1ccc(C(F)(F)F)cc1)c1cnccn1 (stereo unspecified) | > 1000 | > 1000 | – | > 100000
CN(C)C(=O)C1CCN(C(c2ccc(C(F)(F)F)cc2)c2cnccn2)CC1 (stereo unspecified) | 1010 | 3410 | – | > 100000
CN(C)C(=O)NC(c1ccc(C(F)(F)F)cc1)c1cnccn1 (stereo unspecified) | > 1000 | > 1000 | – | > 100000
O=S(=O)(NC(c1ccc(C(F)(F)F)cc1)c1cnccn1)c1ccc(C(F)(F)F)cc1 (stereo unspecified) | > 1000 | > 1000 | – | 59900
CSc1ncc(C(O)(c2ccc(Cl)cc2)c2cccnc2)cn1 (stereo unspecified) | 288 | 600 | – | > 100000
CN(C)CCOc1ncc(C(O)(c2ccc(Cl)cc2)c2cccnc2)cn1 (stereo unspecified) | > 1000 | > 1000 | – | > 100000
O=C(Cc1ccccc1)N1CCC(NC(c2ccc(C(F)(F)F)cc2)c2cnccn2)CC1 (stereo unspecified) | 540 | 950 | – | 70500
O=S(=O)(c1ccc(Cl)cc1)N1CCC(NC(c2ccc(C(F)(F)F)cc2)c2cnccn2)CC1 (stereo unspecified) | 330 | 910 | – | > 100000
O=C(NC(c1ccc(C(F)(F)F)cc1)c1cnccn1)c1ccccc1 (stereo unspecified) | > 1000 | > 1000 | – | > 100000
NC(=O)c1ccc(C(O)(c2ccc(Cl)cc2)c2cccnc2)c(F)c1 (stereo unspecified) | 660 | 790 | – | > 100000
Fc1ccccc1C(c1ccc(C(F)(F)F)cc1)c1cccnc1 (stereo unspecified) | 150 | 510 | 64000 | –
CC(=O)N1CCC(NC(c2ccc(C(F)(F)F)cc2)c2cnccn2)CC1 (stereo unspecified) | 3050 | 7810 | – | > 100000
CC(C)C(=O)NC(c1ccc(C(F)(F)F)cc1)c1cnccn1 (stereo unspecified) | > 10000 | > 10000 | – | > 100000
CC(C)CNC(c1ccc(C(F)(F)F)cc1)c1cnccn1 (stereo unspecified) | 800 | 2100 | – | > 100000
CC(C)C(=O)N1CCN(C(c2ccc(Cl)cc2)c2cncnc2)CC1 (stereo unspecified) | 370 | 940 | – | > 100000
O=C1CCCN1CCCNC(c1ccc(Cl)cc1)c1cccnc1 (stereo unspecified) | 378 | 820 | – | > 100000
CC(C)CS(=O)(=O)NC(c1ccc(C(F)(F)F)cc1)c1cnccn1 (stereo unspecified) | > 1000 | > 1000 | – | > 100000
O=C(NC(c1ccc(C(F)(F)F)cc1)c1cnccn1)C1CC1 (stereo unspecified) | > 10000 | > 10000 | – | > 100000
O=C(NC(c1ccc(C(F)(F)F)cc1)c1cnccn1)C1CCCCC1 (stereo unspecified) | 1570 | 4790 | – | > 100000
CC(=O)NC(c1ccc(C(F)(F)F)cc1)c1cnccn1 (stereo unspecified) | > 10000 | > 10000 | – | > 100000
NC(=O)C1CCN(C(c2ccc(C(F)(F)F)cc2)c2cnccn2)CC1 (stereo unspecified) | 6410 | > 10000 | – | > 100000

The next lines start with results.

IC50 [1] [nM] | IC90 [3] [nM] | Structure (SMILES) | IC50 [2] [nM] | IC50 ([2]; IC50) [nM]
14 | 190 | Clc1ccc(C(NCCc2c[nH]c3ccccc23)c2cccnc2)cc1 (stereo unspecified) | – | 48700
45 | 100 | COc1ccccc1N1CCN(C(c2cccnc2)c2ccc(Cl)cc2F)CC1 (stereo unspecified) | – | 59800
253 | 570 | Cc1ccncc1C(O)(c1ccc(Cl)cc1)c1cncnc1 (stereo unspecified) | – | > 100000
30 | 240 | CS(=O)(=O)Nc1ccc(C(O)(c2ccc(Cl)cc2)c2cccnc2)cc1 (stereo unspecified) | – | > 100000
210 | 770 | O=S(=O)(Cc1ccccc1)N1CCC(NC(c2ccc(C(F)(F)F)cc2)c2cnccn2)CC1 (stereo unspecified) | – | > 100000
200 | 540 | O=C(C1CCCCC1)N1CCC(NC(c2ccc(C(F)(F)F)cc2)c2cnccn2)CC1 (stereo unspecified) | – | 83800
35 | 200 | CC(C)Oc1ccc(C(c2cccnc2)N2CCN(C(=O)C(C)C)CC2)cc1 (stereo unspecified) | – | > 100000
4.5 | 20 | CC(C)c1ccc(C(O)(c2ccc(C(F)(F)F)cc2)c2cncnc2)cc1 (stereo unspecified) | – | 56500
26 | 110 | N#Cc1ccc(C(O)(c2ccc(Cl)cc2)c2cccnc2)c(F)c1 (stereo unspecified) | – | > 100000
76 | 260 | CC(C)(C)OC(=O)N1CCC(CNC(c2ccc(C(F)(F)F)cc2)c2cnccn2)CC1 (stereo unspecified) | – | 73300
58 | 140 | CC(C)(C)OC(=O)N1CCC(NC(c2ccc(C(F)(F)F)cc2)c2cnccn2)CC1 (stereo unspecified) | – | 62800
52 | 450 | OC(c1ccc(Cl)cc1)(c1cncnc1)c1ccc(Cl)cc1F (stereo unspecified) | – | 54100
60 | 230 | CC(C)Oc1ncc(C(O)(c2ccc(Cl)cc2)c2cccnc2)cn1 (stereo unspecified) | – | > 100000
59 | 160 | N#Cc1ccc(C(O)(c2ccc(Cl)cc2)c2cccnc2)cc1 (stereo unspecified) | – | > 100000
160 | 400 | CC(C)(C)OC(=O)NC1CCN(C(c2ccc(C(F)(F)F)cc2)c2cnccn2)CC1 (stereo unspecified) | – | 56700
170 | 320 | O=S(=O)(c1ccccc1)N1CCC(NC(c2ccc(C(F)(F)F)cc2)c2cnccn2)CC1 (stereo unspecified) | – | > 100000
251 | 650 | OC(c1ccc(Cl)cc1)(c1cncnc1)c1cscn1 (stereo unspecified) | – | > 100000
140 | 500 | OC(c1ccc(Cl)cc1)(c1cccnc1)c1cncs1 (stereo unspecified) | – | > 100000
110 | 220 | FC(F)(F)c1ccc(C(NCC2CCCCC2)c2cccnc2)cc1 (stereo unspecified) | – | 54000
179 | 630 | OC(c1cccnc1)(c1cnc(Cl)nc1)c1ccc(Cl)cc1F (stereo unspecified) | – | > 100000
260 | 850 | CCS(=O)(=O)N1CCN(C(c2ccc(Cl)cc2)c2cncnc2)CC1 (stereo unspecified) | – | > 100000
62 | 220 | CC(C)C(=O)N1CCN(C(c2cccnc2)c2ccc(Cl)cc2F)CC1 (stereo unspecified) | – | > 100000
